Key:
HCT-15 [1] = assay: Cytotoxicity against human HCT15 cells at 10 uM after 48 hrs by SRB assay; assay type: functional; details: HCT-15, 48 h, read-out: GI
SF-295 [2] = assay: Cytotoxicity against human SF295 cells at 10 uM after 48 hrs by SRB assay; assay type: functional; details: SF-295, 48 h, read-out: GI
A549 [3] = assay: Cytotoxicity against human A549 cells at 10 uM after 48 hrs by SRB assay; assay type: functional; details: A549, 48 h, read-out: GI
MCF7 [4] = assay: Cytotoxicity against human MCF7 cells at 10 uM after 48 hrs by SRB assay; assay type: functional; details: MCF7, 48 h, read-out: GI
HEp-2 [5] = assay: Cytotoxicity against human Hep2 cells at 10 uM after 48 hrs by SRB assay; assay type: functional; details: HEp-2, 48 h, read-out: GI
PC-3 [6] = assay: Cytotoxicity against human PC3 cells at 10 uM after 48 hrs by SRB assay; assay type: functional; details: PC-3, 48 h, read-out: GI
DU-145 [7] = assay: Cytotoxicity against human DU145 cells at 10 uM after 48 hrs by SRB assay; assay type: functional; details: DU-145, 48 h, read-out: GI
HL-60 [8] = assay: Cytotoxicity against human HL60 cells at 10 uM after 48 hrs by SRB assay; assay type: functional; details: HL-60, 48 h, read-out: GI
THP-1 [9] = assay: Cytotoxicity against human THP1 cells at 10 uM after 48 hrs by SRB assay; assay type: functional; details: THP-1, 48 h, read-out: GI
HCT-15 [10] = assay: Cytotoxicity against human HCT15 cells at 30 uM after 48 hrs by SRB assay; assay type: functional; details: HCT-15, 48 h, read-out: GI
SF-295 [11] = assay: Cytotoxicity against human SF295 cells at 30 uM after 48 hrs by SRB assay; assay type: functional; details: SF-295, 48 h, read-out: GI
A549 [12] = assay: Cytotoxicity against human A549 cells at 30 uM after 48 hrs by SRB assay; assay type: functional; details: A549, 48 h, read-out: GI
MCF7 [13] = assay: Cytotoxicity against human MCF7 cells at 30 uM after 48 hrs by SRB assay; assay type: functional; details: MCF7, 48 h, read-out: GI
HEp-2 [14] = assay: Cytotoxicity against human Hep2 cells at 30 uM after 48 hrs by SRB assay; assay type: functional; details: HEp-2, 48 h, read-out: GI
PC-3 [15] = assay: Cytotoxicity against human PC3 cells at 30 uM after 48 hrs by SRB assay; assay type: functional; details: PC-3, 48 h, read-out: GI
DU-145 [16] = assay: Cytotoxicity against human DU145 cells at 30 uM after 48 hrs by SRB assay; assay type: functional; details: DU-145, 48 h, read-out: GI
HL-60 [17] = assay: Cytotoxicity against human HL60 cells at 30 uM after 48 hrs by SRB assay; assay type: functional; details: HL-60, 48 h, read-out: GI
THP-1 [18] = assay: Cytotoxicity against human THP1 cells at 30 uM after 48 hrs by SRB assay; assay type: functional; details: THP-1, 48 h, read-out: GI
HCT-15 [19] = assay: Cytotoxicity against human HCT15 cells at 50 uM after 48 hrs by SRB assay; assay type: functional; details: HCT-15, 48 h, read-out: GI
SF-295 [20] = assay: Cytotoxicity against human SF295 cells at 50 uM after 48 hrs by SRB assay; assay type: functional; details: SF-295, 48 h, read-out: GI
A549 [21] = assay: Cytotoxicity against human A549 cells at 50 uM after 48 hrs by SRB assay; assay type: functional; details: A549, 48 h, read-out: GI
MCF7 [22] = assay: Cytotoxicity against human MCF7 cells at 50 uM after 48 hrs by SRB assay; assay type: functional; details: MCF7, 48 h, read-out: GI
HEp-2 [23] = assay: Cytotoxicity against human Hep2 cells at 50 uM after 48 hrs by SRB assay; assay type: functional; details: HEp-2, 48 h, read-out: GI
PC-3 [24] = assay: Cytotoxicity against human PC3 cells at 50 uM after 48 hrs by SRB assay; assay type: functional; details: PC-3, 48 h, read-out: GI
HL-60 [25] = assay: Cytotoxicity against human HL60 cells at 50 uM after 48 hrs by SRB assay; assay type: functional; details: HL-60, 48 h, read-out: GI
DU-145 [26] = assay: Cytotoxicity against human DU145 cells at 50 uM after 48 hrs by SRB assay; assay type: functional; details: DU-145, 48 h, read-out: GI
THP-1 [27] = assay: Cytotoxicity against human THP1 cells at 50 uM after 48 hrs by SRB assay; assay type: functional; details: THP-1, 48 h, read-out: GI
HCT-15 [28] = assay: Cytotoxicity against human HCT15 cells after 48 hrs by SRB assay; assay type: functional, cell-based; details: HCT-15, 48 h
A549 [29] = assay: Cytotoxicity against human A549 cells after 48 hrs by SRB assay; assay type: functional, cell-based; details: A549, 48 h
SF-295 [30] = assay: Cytotoxicity against human SF295 cells after 48 hrs by SRB assay; assay type: functional, cell-based; details: SF-295, 48 h
MCF7 [31] = assay: Cytotoxicity against human MCF7 cells after 48 hrs by SRB assay; assay type: functional, cell-based; details: MCF7, 48 h
HEp-2 [32] = assay: Cytotoxicity against human Hep2 cells after 48 hrs by SRB assay; assay type: functional, cell-based; details: HEp-2, 48 h
PC-3 [33] = assay: Cytotoxicity against human PC3 cells after 48 hrs by SRB assay; assay type: functional, cell-based; details: PC-3, 48 h
DU-145 [34] = assay: Cytotoxicity against human DU145 cells after 48 hrs by SRB assay; assay type: functional, cell-based; details: DU-145, 48 h
HL-60 [35] = assay: Cytotoxicity against human HL60 cells after 48 hrs by SRB assay; assay type: functional, cell-based; details: HL-60, 48 h
THP-1 [36] = assay: Cytotoxicity against human THP1 cells after 48 hrs by SRB assay; assay type: functional, cell-based; details: THP-1, 48 h

SMILES | inhibition of growth at 10 µM (HCT-15 [1]) | inhibition of growth at 10 µM (SF-295 [2]) | inhibition of growth at 10 µM (A549 [3]) | inhibition of growth at 10 µM (MCF7 [4]) | inhibition of growth at 10 µM (HEp-2 [5]) | inhibition of growth at 10 µM (PC-3 [6]) | inhibition of growth at 10 µM (DU-145 [7]) | inhibition of growth at 10 µM (HL-60 [8]) | inhibition of growth at 10 µM (THP-1 [9]) | inhibition of growth at 30 µM (HCT-15 [10]) | inhibition of growth at 30 µM (SF-295 [11]) | inhibition of growth at 30 µM (A549 [12]) | inhibition of growth at 30 µM (MCF7 [13]) | inhibition of growth at 30 µM (HEp-2 [14]) | inhibition of growth at 30 µM (PC-3 [15]) | inhibition of growth at 30 µM (DU-145 [16]) | inhibition of growth at 30 µM (HL-60 [17]) | inhibition of growth at 30 µM (THP-1 [18]) | inhibition of growth at 50 µM (HCT-15 [19]) | inhibition of growth at 50 µM (SF-295 [20]) | other results
C=C(C)[C@@H]1CC[C@]2(C(=O)O)CC[C@]3(C)[C@H](CC[C@@H]4[C@@]5(C)CC[C@H](OCc6cn(-c7ccc([N+](=O)[O-])cc7)nn6)C(C)(C)[C@@H]5CC[C@]43C)[C@@H]12 | 36% | 52% | 28% | 20% | 43% | 48% | 43% | 63% | 51% | 52% | 72% | 49% | 44% | 54% | 59% | 54% | 78% | 68% | 65% | 87% | inhibition of growth at 50 µM (A549 [21]): 62%; inhibition of growth at 50 µM (MCF7 [22]): 53%; inhibition of growth at 50 µM (HEp-2 [23]): 72%; inhibition of growth at 50 µM (PC-3 [24]): 74%; inhibition of growth at 50 µM (HL-60 [25]): 94%; inhibition of growth at 50 µM (DU-145 [26]): 72%; inhibition of growth at 50 µM (THP-1 [27]): 93%; IC50 (HCT-15 [28]): 28 µM; IC50 (A549 [29]): 15 µM; IC50 (SF-295 [30]): 8 µM; IC50 (MCF7 [31]): 38 µM; IC50 (HEp-2 [32]): 15 µM; IC50 (PC-3 [33]): 13 µM; IC50 (DU-145 [34]): 24 µM; IC50 (HL-60 [35]): 4.5 µM; IC50 (THP-1 [36]): 9 µM
C=C(C)[C@@H]1CC[C@]2(C(=O)O)CC[C@]3(C)[C@H](CC[C@@H]4[C@@]5(C)CC[C@H](OCc6cn(-c7ccc(C(=O)c8ccccc8)cc7)nn6)C(C)(C)[C@@H]5CC[C@]43C)[C@@H]12 | 43% | 8% | 32% | 29% | 25% | 6% | 6% | 6% | 3% | 41% | 19% | 37% | 25% | 26% | 4% | 9% | 30% | 24% | 46% | 12% | inhibition of growth at 50 µM (A549 [21]): 58%; inhibition of growth at 50 µM (MCF7 [22]): 44%; inhibition of growth at 50 µM (HEp-2 [23]): 25%; inhibition of growth at 50 µM (PC-3 [24]): 3%; inhibition of growth at 50 µM (HL-60 [25]): 94%; inhibition of growth at 50 µM (DU-145 [26]): 50%; inhibition of growth at 50 µM (THP-1 [27]): 91%; IC50 (HCT-15 [28]): > 50 µM; IC50 (A549 [29]): 36 µM; IC50 (SF-295 [30]): > 50 µM; IC50 (MCF7 [31]): > 50 µM; IC50 (HEp-2 [32]): > 50 µM; IC50 (PC-3 [33]): > 50 µM; IC50 (DU-145 [34]): 50 µM; IC50 (HL-60 [35]): 40 µM; IC50 (THP-1 [36]): 44 µM
